Data as given in the supplement of paper PMC11208160.

Assay: recombinant UMI read abundance after kanamycin selection (control-corrected) (log10(CPM+1)); higher = more efficient recombination; extreme values may be limits of the assay; sequences stand for … in AGTGCAGAGAAAATCGGCCAGTTTTCTCTGCCTGCAGTCCGCATGCCGTGGGACCCCTTGGGTTCTAACCTGTTGCCTAGATTTATGCAGCGGACTGCCTTTCTCCCAAAGTGATAAACCGG…AGGTTGGTTTCACT; site = the 11-nt donor
Outline: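 Reported values are log10(CPM+1) from a pooled Escherichia coli screen of donor and donor-binding-loop pairs for the IS621 bridge recombinase. Selection used IPTG (0.07 mM) plus kanamycin, against unselected plating, each in two replicates. Recombinant UMIs were amplified across the donor–target junction, sequenced, converted to CPM, averaged over replicates and scaled by control-derived factors.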
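Note: IS621 bridge recombinase in Escherichia coli cells against a fixed T5 target plasmid.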

Sequence | recombinant UMI read abundance (log10)
CATCACACATGGACCGGTTTTCCCGGTAATCCGTATTTGGT (site CATCACACTAC) | 1.24
CATCGAACATGGACCGGTTTTCCCGGTAATCCGTATTTGAT (site CATCGAACTAT) | 0.616
CATCGAACATGGACCGGTTTTCCCGGTAATCCGTATTTGCT (site CATCGAACTAG) | 2.31
CATCGGACATGGACCGGTTTTCCCGGTAATCCGTATTTGAA (site CATCGGACTTT) | 1.53
CATCGGGCATGGACCGGTTTTCCCGGTAATCCGTATTTGCC (site CATCGGGCTGG) | 1.31
CATCTTGCATGGACCGGTTTTCCCGGTAATCCGTATTTGCG (site CATCTTGCTCG) | 0.00609
CATCTTTCATGGACCGGTTTTCCCGGTAATCCGTATTTGGT (site CATCTTTCTAC) | 0.00559
CATGCGCCATGGACCGGTTTTCCCGGTAATCCGTATTTGTG (site CAAGCGCCTCA) | 0.0274
CATGCGCCATGGACCGGTTTTCCCGGTAATCCGTATTTGTG (site CACGCGCCTCA) | 0.0136
CATGCGCCATGGACCGGTTTTCCCGGTAATCCGTATTTGTG (site CAGGCGCCTCA) | 0.025
CATGCGCCATGGACCGGTTTTCCCGGTAATCCGTATTTGTG (site CATGCGCCTCA) | 0.0238
CATGGCCCATGGACCGGTTTTCCCGGTAATCCGTATTTGTT (site CAAGGCCCTAA) | 0.0112
CATGGCCCATGGACCGGTTTTCCCGGTAATCCGTATTTGTT (site CACGGCCCTAA) | 0.00402
CATGGCCCATGGACCGGTTTTCCCGGTAATCCGTATTTGTT (site CAGGGCCCTAA) | 0.0418
CATGGCCCATGGACCGGTTTTCCCGGTAATCCGTATTTGTT (site CATGGCCCTAA) | 0.00575
CATTAGCCATGGACCGGTTTTCCCGGTAATCCGTATTTGGA (site CATTAGCCTTC) | 0.0164
CATTCCACATGGACCGGTTTTCCCGGTAATCCGTATTTGCA (site CATTCCACTTG) | 1.95
CATTCGACATGGACCGGTTTTCCCGGTAATCCGTATTTGGG (site CAATCGACTCC) | 0.0123
CATTCGACATGGACCGGTTTTCCCGGTAATCCGTATTTGGG (site CACTCGACTCC) | 0.0107
CATTCGACATGGACCGGTTTTCCCGGTAATCCGTATTTGGG (site CAGTCGACTCC) | 0.0114
CATTCGACATGGACCGGTTTTCCCGGTAATCCGTATTTGGG (site CATTCGACTCC) | 0.00677
CATTCTCCATGGACCGGTTTTCCCGGTAATCCGTATTTGAG (site CATTCTCCTCT) | 0.0129
CATTGAACATGGACCGGTTTTCCCGGTAATCCGTATTTGTT (site CATTGAACTAA) | 0.0984
CATTGCACATGGACCGGTTTTCCCGGTAATCCGTATTTGTT (site CATTGCACTAA) | 0.487
CATTGCTCATGGACCGGTTTTCCCGGTAATCCGTATTTGAA (site CAATGCTCTTT) | 0.335

Sequence | recombinant UMI read abundance (log10)
CATTGCTCATGGACCGGTTTTCCCGGTAATCCGTATTTGAA (site CACTGCTCTTT) | 0.00354
CATTGCTCATGGACCGGTTTTCCCGGTAATCCGTATTTGAA (site CAGTGCTCTTT) | 0.351
CATTGCTCATGGACCGGTTTTCCCGGTAATCCGTATTTGAA (site CATTGCTCTTT) | 1.05
CCAAATTCATGGACCGGTTTTCCCGGTAATCCGTATTTGTT (site CCAAATTCTAA) | 0
CCAACCCCATGGACCGGTTTTCCCGGTAATCCGTATTTGCT (site CCAACCCCTAG) | 0
CCAACGGCATGGACCGGTTTTCCCGGTAATCCGTATTTGCG (site CCAACGGCTCG) | 1.52
CCAACTACATGGACCGGTTTTCCCGGTAATCCGTATTTGAC (site CCAACTACTGT) | 0.998
CCAAGGGCATGGACCGGTTTTCCCGGTAATCCGTATTTGCT (site CCAAGGGCTAG) | 0
CCACCAGCATGGACCGGTTTTCCCGGTAATCCGTATTTGTA (site CCACCAGCTTA) | 1.17
CCACTAACATGGACCGGTTTTCCCGGTAATCCGTATTTGGA (site CAACTAACTTC) | 0.0202
CCACTAACATGGACCGGTTTTCCCGGTAATCCGTATTTGGA (site CCACTAACTTC) | 0.235
CCACTAACATGGACCGGTTTTCCCGGTAATCCGTATTTGGA (site CGACTAACTTC) | 0.0202
CCACTAACATGGACCGGTTTTCCCGGTAATCCGTATTTGGA (site CTACTAACTTC) | 0.0175
CCACTATCATGGACCGGTTTTCCCGGTAATCCGTATTTGAC (site CCACTATCTGT) | 1.02
CCACTATCATGGACCGGTTTTCCCGGTAATCCGTATTTGAC (site CTAGTATCTGT) | 0
CCAGAGACATGGACCGGTTTTCCCGGTAATCCGTATTTGCG (site ACAGAGACTCG) | 0.249
CCAGAGACATGGACCGGTTTTCCCGGTAATCCGTATTTGCG (site CCAGAGACTCG) | 1.76
CCAGAGACATGGACCGGTTTTCCCGGTAATCCGTATTTGCG (site GCAGAGACTCG) | 0.0188
CCAGAGACATGGACCGGTTTTCCCGGTAATCCGTATTTGCG (site TCAGAGACTCG) | 0.381
CCAGCGCCATGGACCGGTTTTCCCGGTAATCCGTATTTGTG (site CAAGCGCCTCA) | 0.0258
CCAGCGCCATGGACCGGTTTTCCCGGTAATCCGTATTTGTG (site CCAGCGCCTCA) | 0.045
CCAGCGCCATGGACCGGTTTTCCCGGTAATCCGTATTTGTG (site CGAGCGCCTCA) | 0.0423
CCAGCGCCATGGACCGGTTTTCCCGGTAATCCGTATTTGTG (site CTAGCGCCTCA) | 0
CCAGCTGCATGGACCGGTTTTCCCGGTAATCCGTATTTGAT (site CCAGATGCTAT) | 0.00428
CCAGCTGCATGGACCGGTTTTCCCGGTAATCCGTATTTGAT (site CCAGCTGCTAT) | 1.7

Sequence | recombinant UMI read abundance (log10)
CCAGCTGCATGGACCGGTTTTCCCGGTAATCCGTATTTGAT (site CCAGGTGCTAT) | 0.00694
CCAGCTGCATGGACCGGTTTTCCCGGTAATCCGTATTTGAT (site CCAGTTGCTAT) | 0.00911
CCAGGGCCATGGACCGGTTTTCCCGGTAATCCGTATTTGTG (site CCAGGGCCTCA) | 0.00753
CCAGGTCCATGGACCGGTTTTCCCGGTAATCCGTATTTGAT (site CCAGGTACTAT) | 0
CCAGGTCCATGGACCGGTTTTCCCGGTAATCCGTATTTGAT (site CCAGGTCCTAT) | 0.341
CCAGGTCCATGGACCGGTTTTCCCGGTAATCCGTATTTGAT (site CCAGGTGCTAT) | 0
CCAGGTCCATGGACCGGTTTTCCCGGTAATCCGTATTTGAT (site CCAGGTTCTAT) | 0
CCAGGTGCATGGACCGGTTTTCCCGGTAATCCGTATTTGAA (site CCAGGTGCTAT) | 0.00736
CCAGGTGCATGGACCGGTTTTCCCGGTAATCCGTATTTGAA (site CCAGGTGCTCT) | 0.218
CCAGGTGCATGGACCGGTTTTCCCGGTAATCCGTATTTGAA (site CCAGGTGCTGT) | 0
CCAGGTGCATGGACCGGTTTTCCCGGTAATCCGTATTTGAA (site CCAGGTGCTTT) | 1.73
CCAGGTGCATGGACCGGTTTTCCCGGTAATCCGTATTTGAC (site CCAGGTGCTAT) | 0.0299
CCAGGTGCATGGACCGGTTTTCCCGGTAATCCGTATTTGAC (site CCAGGTGCTCT) | 0.00976
CCAGGTGCATGGACCGGTTTTCCCGGTAATCCGTATTTGAC (site CCAGGTGCTGT) | 0.637
CCAGGTGCATGGACCGGTTTTCCCGGTAATCCGTATTTGAC (site CCAGGTGCTTT) | 0.00791
CCAGGTGCATGGACCGGTTTTCCCGGTAATCCGTATTTGGT (site CCAGGTGCTAA) | 0.0181
CCAGGTGCATGGACCGGTTTTCCCGGTAATCCGTATTTGGT (site CCAGGTGCTAC) | 0.188
CCAGGTGCATGGACCGGTTTTCCCGGTAATCCGTATTTGGT (site CCAGGTGCTAG) | 0
CCAGGTGCATGGACCGGTTTTCCCGGTAATCCGTATTTGGT (site CCAGGTGCTAT) | 0.541
CCAGTAGCATGGACCGGTTTTCCCGGTAATCCGTATTTGAC (site CCAGTAGCTGT) | 2.06
CCAGTAGCATGGACCGGTTTTCCCGGTAATCCGTATTTGAC (site CTAGTATCTGT) | 0
CCAGTATCATGGACCGGTTTTCCCGGTAATCCGTATTTGCA (site ACAGTATCTTG) | 1.07
CCAGTATCATGGACCGGTTTTCCCGGTAATCCGTATTTGCA (site CCAGTATCTTG) | 2.21
CCAGTATCATGGACCGGTTTTCCCGGTAATCCGTATTTGCA (site GCAGTATCTTG) | 0
CCAGTATCATGGACCGGTTTTCCCGGTAATCCGTATTTGCA (site TCAGTATCTTG) | 0
